In PubChem BioAssay (NCI):
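Each compound was tested at five concentrations against cells in 96-well plates for 48 hours. TGI: concentration producing complete growth inhibition.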

Columns and labels:
Assay in all cases: NCI tumour cell line growth inhibition, 48 h
SNB-19 CNS = test system: SNB-19 CNS
SF-295 CNS = test system: SF-295 CNS
HCT-15 colon = test system: HCT-15 colon
HOP-62 NSCLC = test system: HOP-62 NSCLC
KM12 colon = test system: KM12 colon
HL-60(TB) leukemia = test system: HL-60(TB) leukemia
SF-268 CNS = test system: SF-268 CNS
786-0 renal = test system: 786-0 renal
M19-MEL melanoma = test system: M19-MEL melanoma
SNB-75 CNS = test system: SNB-75 CNS
NCI-H23 lung = test system: NCI-H23 lung
U251 CNS = test system: U251 CNS
RXF-631 renal = test system: RXF-631 renal
M14 melanoma = test system: M14 melanoma
HT29 colon = test system: HT29 colon
IGROV1 ovarian = test system: IGROV1 ovarian
OVCAR-4 ovarian = test system: OVCAR-4 ovarian
HOP-92 NSCLC = test system: HOP-92 NSCLC
LOX IMVI melanoma = test system: LOX IMVI melanoma
COLO 205 colon = test system: COLO 205 colon
A498 renal = test system: A498 renal
TK-10 renal = test system: TK-10 renal
XF 498 CNS = test system: XF 498 CNS
NCI-H460 lung = test system: NCI-H460 lung
SK-OV-3 ovarian = test system: SK-OV-3 ovarian
NCI-H522 lung = test system: NCI-H522 lung
SK-MEL-5 melanoma = test system: SK-MEL-5 melanoma
RPMI-8226 leukemia = test system: RPMI-8226 leukemia
SF-539 CNS = test system: SF-539 CNS
CAKI-1 renal = test system: CAKI-1 renal
UO-31 renal = test system: UO-31 renal
SNB-78 CNS = test system: SNB-78 CNS
SN12C renal = test system: SN12C renal
HCT-116 colon = test system: HCT-116 colon
ACHN renal = test system: ACHN renal
HCC-2998 colon = test system: HCC-2998 colon
DMS 114 small cell lung = test system: DMS 114 small cell lung
SW-620 colon = test system: SW-620 colon
MOLT-4 leukemia = test system: MOLT-4 leukemia
LXFL 529 NSCLC = test system: LXFL 529 NSCLC
OVCAR-5 ovarian = test system: OVCAR-5 ovarian
RXF 393 renal = test system: RXF 393 renal
DLD-1 colon = test system: DLD-1 colon
KM20L2 colon = test system: KM20L2 colon
CCRF-CEM leukemia = test system: CCRF-CEM leukemia
A549 NSCLC = test system: A549 NSCLC
K-562 leukemia = test system: K-562 leukemia
EKVX NSCLC = test system: EKVX NSCLC
OVCAR-3 ovarian = test system: OVCAR-3 ovarian
SK-MEL-2 melanoma = test system: SK-MEL-2 melanoma
UACC-62 melanoma = test system: UACC-62 melanoma
DMS 273 small cell lung = test system: DMS 273 small cell lung
UACC-257 melanoma = test system: UACC-257 melanoma
OVCAR-8 ovarian = test system: OVCAR-8 ovarian
MALME-3M melanoma = test system: MALME-3M melanoma
HOP-18 NSCLC = test system: HOP-18 NSCLC
SR leukemia = test system: SR leukemia
NCI-H226 lung = test system: NCI-H226 lung

Measured: TGI

COC(=O)c1cc2cc(OC)c(OC)cc2cc(C(=O)OC)c1=O
not listed: SR leukemia | NCI-H226 lung
> 100 µM: all other assays above

Cn1cnc2[nH]c(=O)[nH]c(=S)c21
not listed: LOX IMVI melanoma
> 100 µM: all other assays above
